In brackets after ≈: the same amount, converted by molar mass. Activity calls are given as the source filed them. No cut-off for these calls is given here. Where a SMILES comes first, the peptide text is derived from it.
How the values were obtained:
HeLa [1] = assay: Cytotoxicity against human HeLa cells at 100 ug/ml after 24 hrs by MTT assay relative to control; assay type: functional
Escherichia coli [2] = assay: Antibacterial activity against Escherichia coli K12 ATCC 23716 in 10% Luria-Bertani medium/90% Hepes buffer at pH 7.0; assay type: functional
[3] = Toxicity in human erythrocytes assessed as hemolysis at 100 ug/ml; assay type: cell-based, Erythrocyte; settings: read-out: Activity
HeLa [4] = assay: Cytotoxicity against human HeLa cells at 100 ug/ml after 24 hrs by neutral red uptake assay relative to control; assay type: functional
Brucella abortus [5] = assay: Antibacterial activity against Brucella abortus 9.49 (per-) after 48 hrs in Mueller-Hinton broth medium; assay type: functional
Pseudomonas aeruginosa = assay: Antibacterial activity against Pseudomonas aeruginosa CUN 4158-02 after 24 hrs in Mueller-Hinton broth medium; assay type: functional
Acinetobacter baumannii = assay: Antibacterial activity against Acinetobacter baumannii ATCC 19606 after 24 hrs in Mueller-Hinton broth medium; assay type: functional; settings: ATCC 19606, 24 h
[6] = system: Bordetella bronchiseptica; assay: Antibacterial activity against Bordetella bronchiseptica CUN 11844-99 after 24 hrs in Mueller-Hinton broth medium; assay type: functional
Escherichia coli [7] = assay: Antibacterial activity against Escherichia coli ATCC 25922 after 24 hrs in Mueller-Hinton broth medium; assay type: functional; settings: ATCC 25922, 24 h
Escherichia coli [8] = assay: Antibacterial activity against Escherichia coli K12 ATCC 23716 after 24 hrs in Mueller-Hinton broth medium; assay type: functional; settings: K12, 24 h
Staphylococcus aureus = assay: Antibacterial activity against methicillin-resistant Staphylococcus aureus ATCC 43300 after 24 hrs in Mueller-Hinton broth medium; assay type: functional; settings: ATCC 43300, 24 h
Brucella abortus [9] = assay: Antibacterial activity against Brucella abortus 9.19 (per-) after 24 hrs in Mueller-Hinton broth medium; assay type: functional

Row | SMILES | Activity (HeLa [1]) | MBC (Escherichia coli [2]) [µg/mL] | MIC (Escherichia coli [2]) [µg/mL] | hemolysis at 100 ug/ml [3] [%] | Activity (HeLa [4]) [%] | MIC (Brucella abortus [5]) [µg/mL] | MBC (Pseudomonas aeruginosa) [µg/mL] | MIC (Pseudomonas aeruginosa) [µg/mL] | MBC (Acinetobacter baumannii) [µg/mL] | MIC (Acinetobacter baumannii) [µg/mL] | MBC [6] [µg/mL] | MIC [6] [µg/mL] | MBC (Escherichia coli [7]) [µg/mL] | MIC (Escherichia coli [7]) [µg/mL] | MBC (Escherichia coli [8]) [µg/mL] | MIC (Escherichia coli [8]) [µg/mL] | MBC (Staphylococcus aureus) [µg/mL] | MIC (Staphylococcus aureus) [µg/mL] | MBC (Brucella abortus [9]) [µg/mL]
1 | CC[C@H](C)[C@H](NC(=O)[C@H](CCCNC(=N)N)NC(=O)[C@H](CCCNC(=N)N)NC(=O)[C@H](CC(C)C)NC(=O)[C@H](Cc1ccccc1)NC(=O)[C@@H](NC(=O)[C@H](CCCNC(=N)N)NC(=O)[C@H](CCSC)NC(=O)[C@@H](NC(=O)[C@H](CCCCN)NC(=O)[C@H](CCCCN)NC(=O)[C@H](CO)NC(=O)[C@@H](NC(=O)CNC(=O)[C@H](CCCNC(=N)N)NC(=O)[C@H](CC(C)C)NC(=O)[C@@H](NC(=O)[C@@H](N)CCCCN)[C@@H](C)CC)C(C)C)[C@@H](C)CC)[C@@H](C)O)C(=O)N[C@@H](CO)C(=O)N[C@@H](CCCCN)C(=O)N[C@@H](CC(=O)O)C(=O)N[C@H](C(=O)N[C@@H](CC(C)C)C(=O)N[C@H](C(=O)NCC(=O)N[C@@H](CCCCN)C(=O)N[C@@H](CCCCN)C(=O)O)[C@@H](C)O)[C@@H](C)CC (H-KILRGVSKKIMRTFLRRISKDILTGKK-OH) | 6.5% | 8 (≈ 2.51 µM) | 8 (≈ 2.51 µM) | < 5 | 6.9 | – | – | – | – | – | – | – | – | – | – | – | – | – | –
2 | CC[C@H](C)[C@H](NC(=O)[C@H](CCCCN)NC(=O)[C@H](CCCCN)NC(=O)[C@H](CO)NC(=O)[C@@H](NC(=O)[C@@H](N)CCCCN)[C@@H](C)CC)C(=O)N[C@@H](CCSC)C(=O)N[C@@H](CCCNC(=N)N)C(=O)N[C@H](C(=O)N[C@@H](Cc1ccccc1)C(=O)N[C@@H](CC(C)C)C(=O)N[C@@H](CCCNC(=N)N)C(=O)N[C@@H](CCCNC(=N)N)C(N)=O)[C@@H](C)O (H-KISKKIMRTFLRR-NH2) | 6.4% | 12.5 (≈ 7.46 µM) | 12.5 (≈ 7.46 µM) | < 5 | 18.5 | 16 (≈ 9.55 µM) | 256 (≈ 153 µM) | 256 (≈ 153 µM) | 256 (≈ 153 µM) | 256 (≈ 153 µM) | 32 (≈ 19.1 µM) | 16 (≈ 9.55 µM) | 128 (≈ 76.4 µM) | 64 (≈ 38.2 µM) | 16 (≈ 9.55 µM) | 16 (≈ 9.55 µM) | > 256 | > 256 | > 256
3 | CC[C@H](C)[C@H](NC(=O)[C@H](CCCCN)NC(=O)[C@H](CCCCN)NC(=O)[C@H](CO)NC(=O)[C@@H](NC(=O)[C@@H](N)CCCCN)[C@@H](C)CC)C(=O)N[C@@H](CCSC)C(=O)N[C@@H](CCCNC(=N)N)C(=O)N[C@H](C(=O)N[C@@H](Cc1ccccc1)C(=O)N[C@@H](CC(C)C)C(=O)N[C@@H](CCCNC(=N)N)C(=O)N[C@@H](CCCNC(=N)N)C(=O)N[C@H](C(=O)N[C@@H](CC(C)C)C(=O)N[C@H](C(=O)NCC(=O)N[C@@H](CCCCN)C(=O)N[C@@H](CCCCN)C(N)=O)[C@@H](C)O)[C@@H](C)CC)[C@@H](C)O (H-KISKKIMRTFLRRILTGKK-NH2) | 21.1% | 50 (≈ 21.6 µM) | 25 (≈ 10.8 µM) | – | 56.4 | 2 (≈ 0.863 µM) | 8 (≈ 3.45 µM) | 8 (≈ 3.45 µM) | 4 (≈ 1.73 µM) | 4 (≈ 1.73 µM) | 128 (≈ 55.2 µM) | 128 (≈ 55.2 µM) | 16 (≈ 6.91 µM) | 16 (≈ 6.91 µM) | 8 (≈ 3.45 µM) | 8 (≈ 3.45 µM) | 256 (≈ 110 µM) | 256 (≈ 110 µM) | 32 (≈ 13.8 µM)
4 | CC[C@H](C)[C@H](NC(=O)[C@H](CCCCN)NC(=O)[C@@H](N)CCCCN)C(=O)N[C@@H](CCSC)C(=O)N[C@@H](CCCNC(=N)N)C(=O)N[C@H](C(=O)N[C@@H](Cc1ccccc1)C(=O)N[C@@H](CC(C)C)C(=O)N[C@@H](CCCNC(=N)N)C(=O)N[C@@H](CCCNC(=N)N)C(N)=O)[C@@H](C)O (H-KKIMRTFLRR-NH2) | inactive | 50 (≈ 37.1 µM) | 25 (≈ 18.5 µM) | < 5 | – | 128 (≈ 95 µM) | > 256 | > 256 | > 128 | > 128 | > 256 | > 256 | > 256 | 256 (≈ 190 µM) | 256 (≈ 190 µM) | 256 (≈ 190 µM) | > 256 | 256 (≈ 190 µM) | < 256
5 | CC[C@H](C)[C@H](NC(=O)[C@H](CCCNC(=N)N)NC(=O)[C@H](CCCNC(=N)N)NC(=O)[C@H](CC(C)C)NC(=O)[C@H](Cc1ccccc1)NC(=O)[C@@H](NC(=O)[C@H](CCCNC(=N)N)NC(=O)[C@H](CCSC)NC(=O)[C@@H](NC(=O)[C@H](CCCCN)NC(=O)[C@@H](N)CCCCN)[C@@H](C)CC)[C@@H](C)O)C(=O)N[C@@H](CO)C(=O)N[C@@H](CCCCN)C(=O)N[C@@H](CC(=O)O)C(=O)N[C@H](C(=O)N[C@@H](CC(C)C)C(=O)N[C@H](C(=O)NCC(=O)N[C@@H](CCCCN)C(=O)N[C@@H](CCCCN)C(N)=O)[C@@H](C)O)[C@@H](C)CC (H-KKIMRTFLRRISKDILTGKK-NH2) | inactive | 32 (≈ 13.2 µM) | 32 (≈ 13.2 µM) | < 5 | – | 16 (≈ 6.58 µM) | 128 (≈ 52.6 µM) | 128 (≈ 52.6 µM) | 64 (≈ 26.3 µM) | 8 (≈ 3.29 µM) | 8 (≈ 3.29 µM) | 4 (≈ 1.64 µM) | 64 (≈ 26.3 µM) | 16 (≈ 6.58 µM) | 32 (≈ 13.2 µM) | 32 (≈ 13.2 µM) | > 256 | > 256 | > 256
6 | CC[C@H](C)[C@H](NC(=O)[C@H](CCCNC(=N)N)NC(=O)[C@H](CCCNC(=N)N)NC(=O)[C@H](CC(C)C)NC(=O)[C@H](Cc1ccccc1)NC(=O)[C@@H](NC(=O)[C@H](CCCNC(=N)N)NC(=O)[C@H](CCSC)NC(=O)[C@@H](NC(=O)[C@H](CCCCN)NC(=O)[C@@H](N)CCCCN)[C@@H](C)CC)[C@@H](C)O)C(=O)N[C@@H](CO)C(=O)N[C@@H](CCCCN)C(=O)N[C@@H](CCCCN)C(=O)N[C@H](C(=O)N[C@@H](CC(C)C)C(=O)N[C@H](C(=O)NCC(=O)N[C@@H](CCCCN)C(=O)N[C@@H](CCCCN)C(N)=O)[C@@H](C)O)[C@@H](C)CC (H-KKIMRTFLRRISKKILTGKK-NH2) | inactive | 32 (≈ 13.1 µM) | 16 (≈ 6.54 µM) | < 5 | – | 4 (≈ 1.64 µM) | 128 (≈ 52.3 µM) | 32 (≈ 13.1 µM) | 8 (≈ 3.27 µM) | 8 (≈ 3.27 µM) | 16 (≈ 6.54 µM) | 2 (≈ 0.818 µM) | 64 (≈ 26.2 µM) | 32 (≈ 13.1 µM) | 32 (≈ 13.1 µM) | 16 (≈ 6.54 µM) | 256 (≈ 105 µM) | 128 (≈ 52.3 µM) | 32 (≈ 13.1 µM)
7 | CC[C@H](C)[C@H](NC(=O)CN)C(=O)NCC(=O)N[C@@H](C)C(=O)N[C@H](C(=O)N[C@@H](CC(C)C)C(=O)N[C@@H](CCCCN)C(=O)N[C@H](C(=O)N[C@@H](CC(C)C)C(=O)N[C@H](C(=O)N[C@H](C(=O)NCC(=O)N[C@@H](CC(C)C)C(=O)N1CCC[C@H]1C(=O)N[C@@H](C)C(=O)N[C@@H](CC(C)C)C(=O)N[C@H](C(=O)N[C@@H](CO)C(=O)N[C@@H](Cc1c[nH]c2ccccc12)C(=O)N[C@H](C(=O)N[C@@H](CCCCN)C(=O)N[C@@H](CCCNC(=N)N)C(=O)N[C@@H](CCCCN)C(=O)N[C@@H](CCCNC(=N)N)C(=O)N[C@@H](CCC(N)=O)C(=O)N[C@@H](CCC(N)=O)C(N)=O)[C@@H](C)CC)[C@@H](C)CC)[C@@H](C)O)[C@@H](C)O)C(C)C)C(C)C [MELITTIN] | 90.1% | 12.5 (≈ 4.39 µM) | – | – | 86 | 4 (≈ 1.41 µM) | 16 (≈ 5.62 µM) | – | 2 (≈ 0.703 µM) | 2 (≈ 0.703 µM) | 4 (≈ 1.41 µM) | 4 (≈ 1.41 µM) | 4 (≈ 1.41 µM) | – | 4 (≈ 1.41 µM) | – | 2 (≈ 0.703 µM) | – | 4 (≈ 1.41 µM)
8 | CC[C@H](C)[C@H](NC(=O)[C@H](CCCNC(=N)N)NC(=O)[C@H](CCCNC(=N)N)NC(=O)[C@H](CO)NC(=O)[C@@H](NC(=O)CNC(=O)[C@H](CCCNC(=N)N)NC(=O)[C@H](CC(C)C)NC(=O)[C@@H](NC(=O)[C@@H](N)CCCNC(=N)N)[C@@H](C)CC)C(C)C)C(=O)N[C@@H](CCSC)C(=O)N[C@@H](CCCNC(=N)N)C(=O)N[C@@H](CCCNC(=N)N)C(=O)N[C@H](C(=O)N[C@@H](CC(C)C)C(=O)N[C@H](C(=O)NCC(=O)N[C@@H](CCCNC(=N)N)C(=O)N[C@@H](CCCNC(=N)N)C(N)=O)[C@@H](C)O)[C@@H](C)CC [RILRGVSRRIM RR ILTGRR] (H-RILRGVSRRIMRRILTGRR-NH2) | 6.6% | 16 (≈ 6.77 µM) | 16 (≈ 6.77 µM) | – | 13.5 | 8 (≈ 3.38 µM) | 128 (≈ 54.1 µM) | 32 (≈ 13.5 µM) | 8 (≈ 3.38 µM) | 8 (≈ 3.38 µM) | 4 (≈ 1.69 µM) | 4 (≈ 1.69 µM) | 16 (≈ 6.77 µM) | 16 (≈ 6.77 µM) | 16 (≈ 6.77 µM) | 16 (≈ 6.77 µM) | 32 (≈ 13.5 µM) | 32 (≈ 13.5 µM) | 32 (≈ 13.5 µM)

Reference: ChEMBL document CHEMBL1156451 (J Biol Chem, 2007)
